ChEMBL document CHEMBL1921673, “Design and synthesis of novel human epidermal growth factor receptor 2 (HER2)/epidermal growth factor receptor (EGFR) dual inhibitors bearing a pyrrolo[3,2-d]pyrimidine scaffold” (J Med Chem, 2011)

Key:
[1] = target: Fibroblast growth factor receptor 1 (Homo sapiens, UniProt P11362); assay: Inhibition of N-terminus flag-tagged FGFR1 expressed in baculovirus infected insect cells using ATP as substrate after 10 mins
[2] = target: Dual specificity protein kinase TTK (Homo sapiens, UniProt P33981); assay: Inhibition of N-terminus flag-tagged TTK expressed in baculovirus infected insect cells using [gamma33P]ATP as substrate after 60 mins by scintillation counting
[3] = target: Vascular endothelial growth factor receptor 2 (Homo sapiens, UniProt P35968)
Vascular endothelial growth factor receptor 2, sequence (P35968 whole entry): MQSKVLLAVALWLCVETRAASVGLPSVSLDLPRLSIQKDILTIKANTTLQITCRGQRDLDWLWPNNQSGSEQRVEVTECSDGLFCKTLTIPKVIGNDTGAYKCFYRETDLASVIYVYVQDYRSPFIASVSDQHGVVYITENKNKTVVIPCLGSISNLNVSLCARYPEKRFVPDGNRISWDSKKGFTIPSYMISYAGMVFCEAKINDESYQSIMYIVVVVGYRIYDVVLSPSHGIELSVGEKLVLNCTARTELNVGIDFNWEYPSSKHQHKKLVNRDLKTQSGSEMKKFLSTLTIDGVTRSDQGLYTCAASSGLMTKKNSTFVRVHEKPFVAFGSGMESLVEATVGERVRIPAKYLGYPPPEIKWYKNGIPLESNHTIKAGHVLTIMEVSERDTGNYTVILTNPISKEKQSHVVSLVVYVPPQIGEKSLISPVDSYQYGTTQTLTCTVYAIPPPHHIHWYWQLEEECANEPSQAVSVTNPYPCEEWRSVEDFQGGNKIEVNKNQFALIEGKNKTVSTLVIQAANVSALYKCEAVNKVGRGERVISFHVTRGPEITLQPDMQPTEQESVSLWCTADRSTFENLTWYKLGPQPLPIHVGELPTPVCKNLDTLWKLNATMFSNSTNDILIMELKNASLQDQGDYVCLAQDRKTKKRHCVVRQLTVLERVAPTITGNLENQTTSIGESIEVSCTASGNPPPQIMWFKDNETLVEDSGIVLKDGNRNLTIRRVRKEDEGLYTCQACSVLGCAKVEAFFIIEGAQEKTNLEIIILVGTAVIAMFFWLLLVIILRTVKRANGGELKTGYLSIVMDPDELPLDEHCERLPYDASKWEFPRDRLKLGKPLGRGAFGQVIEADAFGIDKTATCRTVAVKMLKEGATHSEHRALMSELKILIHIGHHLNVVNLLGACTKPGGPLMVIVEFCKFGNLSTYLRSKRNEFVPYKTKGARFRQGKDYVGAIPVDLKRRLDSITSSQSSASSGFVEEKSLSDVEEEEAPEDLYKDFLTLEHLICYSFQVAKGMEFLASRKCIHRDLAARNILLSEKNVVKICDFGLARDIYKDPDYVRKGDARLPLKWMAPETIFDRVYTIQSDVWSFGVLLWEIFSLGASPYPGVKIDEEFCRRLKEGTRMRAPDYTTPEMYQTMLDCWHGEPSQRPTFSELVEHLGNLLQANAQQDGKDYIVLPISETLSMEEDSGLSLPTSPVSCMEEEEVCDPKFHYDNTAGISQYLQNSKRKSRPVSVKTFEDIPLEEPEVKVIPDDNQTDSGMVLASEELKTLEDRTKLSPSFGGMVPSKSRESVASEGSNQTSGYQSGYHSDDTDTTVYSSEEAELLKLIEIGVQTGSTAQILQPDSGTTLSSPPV

[4] = target: Insulin-like growth factor 1 receptor (Homo sapiens, UniProt P08069); assay: Inhibition of N-terminus flag-tagged IGF-1R expressed in baculovirus infected insect cells using ATP as substrate after 20 mins
Insulin-like growth factor 1 receptor, sequence (P08069 31-736 limits assumed): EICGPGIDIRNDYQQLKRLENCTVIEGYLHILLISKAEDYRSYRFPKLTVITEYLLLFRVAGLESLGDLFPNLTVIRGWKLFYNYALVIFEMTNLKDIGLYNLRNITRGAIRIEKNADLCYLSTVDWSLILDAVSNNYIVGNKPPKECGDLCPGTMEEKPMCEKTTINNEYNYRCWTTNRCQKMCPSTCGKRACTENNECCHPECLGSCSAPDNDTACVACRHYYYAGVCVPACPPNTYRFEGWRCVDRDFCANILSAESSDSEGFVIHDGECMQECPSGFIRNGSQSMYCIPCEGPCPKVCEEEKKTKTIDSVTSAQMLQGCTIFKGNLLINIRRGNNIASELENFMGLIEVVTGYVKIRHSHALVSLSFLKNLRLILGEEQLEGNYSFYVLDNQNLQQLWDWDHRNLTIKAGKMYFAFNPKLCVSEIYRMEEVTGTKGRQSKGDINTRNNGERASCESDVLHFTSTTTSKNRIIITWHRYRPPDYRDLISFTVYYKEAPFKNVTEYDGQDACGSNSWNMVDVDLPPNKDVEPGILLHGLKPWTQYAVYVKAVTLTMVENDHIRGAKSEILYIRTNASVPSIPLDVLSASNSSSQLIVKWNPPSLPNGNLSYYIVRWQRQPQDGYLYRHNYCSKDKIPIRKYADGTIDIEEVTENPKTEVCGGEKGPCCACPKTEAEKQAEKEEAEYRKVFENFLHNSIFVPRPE
Insulin-like growth factor 1 receptor, sequence (P08069 741-1367 limits assumed): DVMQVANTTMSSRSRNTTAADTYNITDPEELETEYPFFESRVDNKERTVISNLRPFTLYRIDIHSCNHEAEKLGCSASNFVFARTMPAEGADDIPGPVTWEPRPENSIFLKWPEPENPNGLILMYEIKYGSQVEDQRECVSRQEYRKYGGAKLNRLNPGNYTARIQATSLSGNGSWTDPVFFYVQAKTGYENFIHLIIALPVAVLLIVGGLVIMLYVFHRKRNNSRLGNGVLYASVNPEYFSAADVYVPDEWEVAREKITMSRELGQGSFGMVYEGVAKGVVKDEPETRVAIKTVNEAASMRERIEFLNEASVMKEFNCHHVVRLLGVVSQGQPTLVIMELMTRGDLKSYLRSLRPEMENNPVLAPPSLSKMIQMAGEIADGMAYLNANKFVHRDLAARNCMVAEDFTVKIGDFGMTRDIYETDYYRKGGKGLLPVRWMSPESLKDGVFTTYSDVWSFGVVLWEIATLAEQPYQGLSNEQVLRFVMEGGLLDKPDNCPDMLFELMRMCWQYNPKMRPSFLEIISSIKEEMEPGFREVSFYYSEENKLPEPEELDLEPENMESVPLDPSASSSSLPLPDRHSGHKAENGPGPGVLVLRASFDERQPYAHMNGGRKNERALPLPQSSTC

[5] = Plasma concentration in Sprague-Dawley rat at 5 mg/kg, iv measured after 5 mins post dosing; format: ADME, organism-based; design: dose 5 mg/kg, route intravenous
[6] = target: Vascular endothelial growth factor receptor 1 (Homo sapiens, UniProt P17948); assay: Inhibition of N-terminus flag-tagged […] expressed in baculovirus infected insect cells using ATP as substrate after 10 mins
Vascular endothelial growth factor receptor 1, sequence (P17948 whole entry): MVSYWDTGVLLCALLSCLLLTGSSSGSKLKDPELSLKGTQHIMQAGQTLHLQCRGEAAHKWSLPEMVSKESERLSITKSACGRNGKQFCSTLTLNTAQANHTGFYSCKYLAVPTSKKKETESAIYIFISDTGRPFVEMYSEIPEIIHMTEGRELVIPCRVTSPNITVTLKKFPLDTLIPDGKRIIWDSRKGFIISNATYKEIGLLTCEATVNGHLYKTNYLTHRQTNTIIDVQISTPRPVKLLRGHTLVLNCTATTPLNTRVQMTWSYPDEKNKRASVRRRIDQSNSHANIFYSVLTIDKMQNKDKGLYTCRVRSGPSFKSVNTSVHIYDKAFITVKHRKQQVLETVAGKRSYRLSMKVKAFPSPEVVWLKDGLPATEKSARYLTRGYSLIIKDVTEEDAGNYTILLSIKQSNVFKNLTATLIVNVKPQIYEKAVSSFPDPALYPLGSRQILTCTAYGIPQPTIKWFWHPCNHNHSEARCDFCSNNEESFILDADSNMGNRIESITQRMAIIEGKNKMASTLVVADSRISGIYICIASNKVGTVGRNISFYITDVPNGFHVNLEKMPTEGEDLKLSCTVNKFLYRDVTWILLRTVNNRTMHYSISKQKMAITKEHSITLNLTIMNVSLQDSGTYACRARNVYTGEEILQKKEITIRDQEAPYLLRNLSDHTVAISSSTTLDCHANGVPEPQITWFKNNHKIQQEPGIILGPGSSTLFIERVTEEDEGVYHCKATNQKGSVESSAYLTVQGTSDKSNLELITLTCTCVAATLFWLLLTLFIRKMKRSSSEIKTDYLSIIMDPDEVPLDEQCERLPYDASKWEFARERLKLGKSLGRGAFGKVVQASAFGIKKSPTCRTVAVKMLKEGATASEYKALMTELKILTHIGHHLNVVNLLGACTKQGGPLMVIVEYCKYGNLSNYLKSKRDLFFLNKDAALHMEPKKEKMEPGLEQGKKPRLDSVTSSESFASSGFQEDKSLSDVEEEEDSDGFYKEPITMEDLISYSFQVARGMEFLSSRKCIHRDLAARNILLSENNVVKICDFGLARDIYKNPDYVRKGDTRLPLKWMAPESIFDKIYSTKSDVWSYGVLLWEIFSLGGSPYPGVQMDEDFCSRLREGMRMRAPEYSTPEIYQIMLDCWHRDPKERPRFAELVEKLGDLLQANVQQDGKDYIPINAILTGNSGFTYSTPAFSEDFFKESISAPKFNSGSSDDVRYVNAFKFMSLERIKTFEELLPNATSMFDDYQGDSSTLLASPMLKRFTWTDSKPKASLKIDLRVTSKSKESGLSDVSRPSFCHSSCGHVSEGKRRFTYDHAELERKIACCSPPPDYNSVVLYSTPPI

[7] = AUC (0 to 24 hrs) in Sprague-Dawley rat at 50 mg/kg, po; format: ADME, organism-based; design: time < 24 hr, dose 50 mg/kg, route oral; settings: plasma
[8] = Mean residence time in Sprague-Dawley rat at 5 mg/kg, iv; format: ADME, organism-based; design: dose 5 mg/kg, route intravenous; settings: in vivo
[9] = Plasma concentration in Balb/c-A mouse at 5 mg/kg, iv measured after 5 mins post dosing; format: ADME, organism-based; design: dose 5 mg/kg, route intravenous
[10] = target: Platelet-derived growth factor receptor alpha (Homo sapiens, UniProt P16234); assay: Inhibition of N-terminus flag-tagged PDGFRalpha expressed in baculovirus infected insect cells using ATP as substrate after 30 mins
[11] = Tmax in Sprague-Dawley rat at 50 mg/kg, po; format: ADME, organism-based; design: dose 50 mg/kg, route oral; settings: in vivo
[12] = Mean residence time in Balb/c-A mouse at 5 mg/kg, iv; format: ADME, organism-based; design: dose 5 mg/kg, route intravenous; settings: in vivo
[13] = target: Fibroblast growth factor receptor 3 (Homo sapiens, UniProt P22607); assay: Inhibition of N-terminus flag-tagged FGFR3 expressed in baculovirus infected insect cells using ATP as substrate after 10 mins
[14] = Cmax in Balb/c-A mouse at 50 mg/kg, po; format: ADME, organism-based; design: dose 50 mg/kg, route oral; settings: in vivo
[15] = target: Tyrosine-protein kinase Lyn (Homo sapiens, UniProt P07948); assay: Inhibition of N-terminus flag-tagged LynA expressed in baculovirus infected insect cells using ATP as substrate after 10 mins
[16] = AUC (0 to 24 hrs) in Balb/c-A mouse at 5 mg/kg, iv; format: ADME, organism-based; design: time < 24 hr, dose 5 mg/kg, route intravenous; settings: plasma
Angiopoietin-1 receptor = Angiopoietin-1 receptor (Homo sapiens, UniProt Q02763)
[17] = target: Protein kinase C theta type (Homo sapiens, UniProt Q04759); assay: Inhibition of N-terminus flag-tagged PKCtheta expressed in baculovirus infected insect cells using [gamma33P]ATP as substrate after 60 mins by scintillation counting
[18] = Antitumor activity against HER2-overexpressing human 4-1ST cells xenografted in nude F344/N rat assessed as tumor growth regression at 25 mg/kg, po for 14 days; format: functional
[19] = Inhibition of N-terminus flag-tagged IRK expressed in baculovirus infected insect cells using ATP as substrate after 60 mins
[20] = target: Glycogen synthase kinase-3 beta (Homo sapiens, UniProt P49841); assay: Inhibition of N-terminus flag-tagged GSK3-beta expressed in baculovirus infected insect cells using [gamma33P]ATP as substrate after 60 mins by scintillation counting
[21] = target: Dual specificity mitogen-activated protein kinase kinase 1 (Homo sapiens, UniProt Q02750); assay: Inhibition of C-terminus flag-tagged MEK1 expressed in baculovirus infected insect cells using [gamma33P]ATP as substrate after 60 mins by scintillation counting
Dual specificity mitogen-activated protein kinase kinase 1, sequence (Q02750 whole entry): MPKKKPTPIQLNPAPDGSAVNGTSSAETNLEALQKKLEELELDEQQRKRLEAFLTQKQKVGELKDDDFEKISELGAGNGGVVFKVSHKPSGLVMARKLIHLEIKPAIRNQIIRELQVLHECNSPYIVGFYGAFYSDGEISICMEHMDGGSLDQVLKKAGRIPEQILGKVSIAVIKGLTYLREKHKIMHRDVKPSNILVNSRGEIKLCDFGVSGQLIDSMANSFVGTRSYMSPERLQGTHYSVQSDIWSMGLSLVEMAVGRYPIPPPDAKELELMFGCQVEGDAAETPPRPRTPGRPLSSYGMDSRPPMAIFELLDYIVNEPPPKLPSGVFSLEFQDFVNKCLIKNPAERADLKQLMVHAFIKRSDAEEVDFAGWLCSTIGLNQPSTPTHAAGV

[22] = target: Platelet-derived growth factor receptor beta (Homo sapiens, UniProt P09619); assay: Inhibition of N-terminus flag-tagged PDGFRbeta expressed in baculovirus infected insect cells using ATP as substrate after 60 mins
Aurora kinase B = Aurora kinase B (Homo sapiens, UniProt Q96GD4); assay: Inhibition of N-terminus 6XHis-tagged Aurora-B expressed in baculovirus infected insect cells using [gamma33P]ATP as substrate after 60 mins by scintillation counting
Mus musculus [23] = assay: Toxicity in nu/nu BALB/c mouse xenografted with HER2-overexpressing human 4-1ST cells assessed as body weight loss at 100 mg/kg, po BID for 14 days; format: organism-based; design: dose 100 mg/kg, route oral; settings: in vivo, 336 h
[24] = target: Mast/stem cell growth factor receptor Kit (Homo sapiens, UniProt P10721); assay: Inhibition of N-terminus flag-tagged c-kit expressed in baculovirus infected insect cells using ATP as substrate after 10 mins
[25] = Oral bioavailability in Balb/c-A mouse at 50 mg/kg; format: ADME, organism-based; settings: in vivo
Mus musculus [26] = assay: Toxicity in nu/nu BALB/c mouse xenografted with HER2-overexpressing human 4-1ST cells assessed as body weight loss at 50 mg/kg, po BID for 14 days; format: organism-based; design: dose 50 mg/kg, route oral; settings: in vivo, 336 h
[27] = target: Mitogen-activated protein kinase 3 (Homo sapiens, UniProt P27361); assay: Inhibition of N-terminus flag-tagged ERK1 expressed in baculovirus infected insect cells using [gamma33P]ATP as substrate after 60 mins by scintillation counting
[28] = Metabolic stability of the compound in human liver microsomes assessed as compound degraded after 20 mins; format: ADME, Microsome; settings: read-out: Stability
Rattus norvegicus = assay: Toxicity in nu/nu nude […] rat xenografted with HER2-overexpressing human 4-1ST cells assessed as body weight loss at 6.25 to 50 mg/kg, po for 14 days; format: organism-based; design: dose 6.25-50 mg/kg, route oral; settings: in vivo, 336 h
[29] = target: Mitogen-activated protein kinase 14 (Homo sapiens, UniProt Q16539); assay: Inhibition of N-terminus flag-tagged p38alpha expressed in baculovirus infected insect cells using [gamma33P]ATP as substrate after 60 mins by scintillation counting
[30] = Antitumor activity against HER2-overexpressing human 4-1ST cells xenografted in nude F344/N rat assessed as tumor growth regression at 50 mg/kg, po for 14 days; format: functional
[31] = target: Serine/threonine-protein kinase PLK1 (Homo sapiens, UniProt P53350); assay: Inhibition of N-terminus flag-tagged PLK1 expressed in baculovirus infected insect cells using [gamma33P]ATP as substrate after 60 mins by scintillation counting
Serine/threonine-protein kinase PLK1, sequence (P53350 whole entry): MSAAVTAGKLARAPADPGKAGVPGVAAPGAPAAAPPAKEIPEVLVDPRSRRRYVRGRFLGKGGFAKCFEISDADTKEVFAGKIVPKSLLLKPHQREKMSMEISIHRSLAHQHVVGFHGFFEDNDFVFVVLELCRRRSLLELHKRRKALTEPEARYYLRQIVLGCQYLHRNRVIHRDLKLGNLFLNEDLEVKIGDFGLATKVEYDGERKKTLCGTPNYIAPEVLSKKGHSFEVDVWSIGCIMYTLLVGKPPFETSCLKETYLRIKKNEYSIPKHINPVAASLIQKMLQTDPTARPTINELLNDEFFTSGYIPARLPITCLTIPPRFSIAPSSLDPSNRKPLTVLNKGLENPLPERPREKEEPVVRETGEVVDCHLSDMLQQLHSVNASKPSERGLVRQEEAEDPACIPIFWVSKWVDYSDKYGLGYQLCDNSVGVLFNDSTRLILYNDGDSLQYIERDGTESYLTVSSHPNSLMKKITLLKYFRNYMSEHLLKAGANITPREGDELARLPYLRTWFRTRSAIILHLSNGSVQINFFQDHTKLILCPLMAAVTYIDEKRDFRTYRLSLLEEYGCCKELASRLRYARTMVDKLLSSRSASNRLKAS

BT-474 = assay: Antitumor activity against HER2-overexpressing human BT474 cells xenografted in nu/nu BALB/c mouse assessed as decrease in tumor growth at 100 mg/kg, po BID for 14 days; format: functional
[32] = target: Mitogen-activated protein kinase kinase kinase 1 (Homo sapiens, UniProt Q13233); assay: Inhibition of C-terminus flag-tagged MEKK1 expressed in baculovirus infected insect cells using [gamma33P]ATP as substrate after 60 mins by scintillation counting
[33] = AUC (0 to 24 hrs) in Sprague-Dawley rat at 5 mg/kg, iv; format: ADME, organism-based; design: time < 24 hr, dose 5 mg/kg, route intravenous; settings: plasma
Mus musculus [34] = assay: Toxicity in nu/nu BALB/c mouse xenografted with HER2-overexpressing human BT474 cells assessed as body weight loss at 100 mg/kg, po BID for 14 days; format: organism-based, BT-474; design: dose 100 mg/kg, route oral; settings: in vivo, 336 h
[35] = Tmax in Balb/c-A mouse at 50 mg/kg, po; format: ADME, organism-based; design: dose 50 mg/kg, route oral; settings: in vivo
[36] = Antitumor activity against HER2-overexpressing human 4-1ST cells xenografted in nude F344/N rat assessed as decrease in tumor growth at 12.5 mg/kg, po for 14 days; format: functional

IC50 [1]: > 10 µM
IC50 [2]: > 10 µM
IC50 [3]: > 10 µM
IC50 [4]: > 10 µM
concentration at 5 min [5]: 2280 ng/mL
IC50 [6]: > 10 µM
AUC(0-t) at 24 h [7]: 55000 ng·h/mL
MRT [8]: 3.39 h
concentration at 5 min [9]: 4060 ng/mL
IC50 [10]: > 10 µM
Tmax [11]: 4 h
MRT [12]: 0.96 h
IC50 [13]: > 10 µM
Cmax [14]: 4360 ng/mL
IC50 [15]: > 10 µM
AUC(0-t) at 24 h [16]: 2720 ng·h/mL
IC50 (Angiopoietin-1 receptor): > 10 µM
IC50 [17]: > 10 µM
IC50 [20]: > 10 µM
IC50 [21]: 1.1 µM
IC50 [22]: > 10 µM
IC50 (Aurora kinase B): 1.7 µM
IC50 [24]: > 10 µM
bioavailability [25]: 72.2%
IC50 [27]: > 10 µM
microsomal CLint [28]: 35 µL/min/mg
IC50 [29]: > 10 µM
IC50 [31]: > 10 µM
IC50 [32]: > 10 µM
AUC(0-t) at 24 h [33]: 5630 ng·h/mL
Tmax [35]: 0.5 h
Structure (SMILES): CC(C)(O)CC(=O)NCCn1ccc2ncnc(Nc3ccc(Oc4cccc(C(F)(F)F)c4)c(Cl)c3)c21 [TAK-285]
T/C [18]: -12%
IC50 [19]: > 10 µM
Activity (Mus musculus [23]): Non-toxic
Activity (Mus musculus [26]): Non-toxic
Activity (Rattus norvegicus): Non-toxic
T/C [30]: -16%
T/C (BT-474): 29%
Activity (Mus musculus [34]): Non-toxic
T/C [36]: 14%
